Measured values published in ChEMBL document CHEMBL5291721, “A preclinical secondary pharmacology resource illuminates target-adverse drug reaction associations of marketed drugs” (Nat Commun, 2023).

Columns and labels:
Estrogen receptor = biological target: T1, Estrogen receptor (Homo sapiens, UniProt P03372)
T1 sequence (P03372 whole entry): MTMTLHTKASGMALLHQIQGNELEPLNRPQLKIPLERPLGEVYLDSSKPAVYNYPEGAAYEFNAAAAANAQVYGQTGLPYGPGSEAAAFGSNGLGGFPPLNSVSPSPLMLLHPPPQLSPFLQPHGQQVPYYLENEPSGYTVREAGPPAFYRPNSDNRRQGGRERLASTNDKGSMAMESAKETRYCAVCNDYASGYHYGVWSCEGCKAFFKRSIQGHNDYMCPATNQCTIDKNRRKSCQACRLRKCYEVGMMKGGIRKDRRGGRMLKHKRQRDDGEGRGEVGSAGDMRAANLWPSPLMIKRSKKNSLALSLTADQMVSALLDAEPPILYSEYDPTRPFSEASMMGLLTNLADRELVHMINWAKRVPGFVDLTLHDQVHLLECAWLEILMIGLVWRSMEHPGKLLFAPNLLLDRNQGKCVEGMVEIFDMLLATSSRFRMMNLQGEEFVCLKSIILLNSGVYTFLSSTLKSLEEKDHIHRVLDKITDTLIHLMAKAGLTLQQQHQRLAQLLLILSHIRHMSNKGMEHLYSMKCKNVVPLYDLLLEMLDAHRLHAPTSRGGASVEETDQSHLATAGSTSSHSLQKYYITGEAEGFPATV

Thromboxane A2 receptor [1] = biological target: T2, Thromboxane A2 receptor (Homo sapiens, UniProt P21731); assay type: functional, cell-based
T2 sequence (P21731 whole entry): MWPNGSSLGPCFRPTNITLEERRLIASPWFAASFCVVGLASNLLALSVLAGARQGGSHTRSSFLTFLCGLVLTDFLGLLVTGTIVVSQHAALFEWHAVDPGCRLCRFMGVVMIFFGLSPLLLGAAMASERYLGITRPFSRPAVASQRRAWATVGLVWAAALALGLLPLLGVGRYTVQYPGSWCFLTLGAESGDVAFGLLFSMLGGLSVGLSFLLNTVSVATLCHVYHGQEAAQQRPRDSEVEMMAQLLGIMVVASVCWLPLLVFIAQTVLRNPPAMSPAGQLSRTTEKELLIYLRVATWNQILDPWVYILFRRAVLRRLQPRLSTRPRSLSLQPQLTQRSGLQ

[2] = biological target: Sodium-dependent serotonin transporter (Homo sapiens, UniProt P31645)
D(3) dopamine receptor = D(3) dopamine receptor (Homo sapiens, UniProt P35462)
[3] = biological target: T3, Alpha-2A adrenergic receptor (Homo sapiens, UniProt P08913)
T3 sequence (P08913 whole entry): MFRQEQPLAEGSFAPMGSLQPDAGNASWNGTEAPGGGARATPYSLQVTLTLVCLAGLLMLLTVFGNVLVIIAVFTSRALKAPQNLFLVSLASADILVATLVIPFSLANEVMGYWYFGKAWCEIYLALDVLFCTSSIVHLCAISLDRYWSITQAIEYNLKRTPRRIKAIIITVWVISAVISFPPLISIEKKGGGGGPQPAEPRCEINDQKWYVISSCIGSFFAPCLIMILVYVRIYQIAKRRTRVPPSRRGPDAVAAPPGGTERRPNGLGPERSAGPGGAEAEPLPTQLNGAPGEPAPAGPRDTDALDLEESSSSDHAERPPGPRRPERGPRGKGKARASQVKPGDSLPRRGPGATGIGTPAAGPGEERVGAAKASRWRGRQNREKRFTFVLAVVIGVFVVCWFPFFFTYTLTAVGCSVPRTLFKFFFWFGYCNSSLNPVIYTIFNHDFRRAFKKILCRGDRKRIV

[4] = biological target: T4, Muscarinic acetylcholine receptor M2 (Homo sapiens, UniProt P08172)
T4 sequence (P08172 whole entry): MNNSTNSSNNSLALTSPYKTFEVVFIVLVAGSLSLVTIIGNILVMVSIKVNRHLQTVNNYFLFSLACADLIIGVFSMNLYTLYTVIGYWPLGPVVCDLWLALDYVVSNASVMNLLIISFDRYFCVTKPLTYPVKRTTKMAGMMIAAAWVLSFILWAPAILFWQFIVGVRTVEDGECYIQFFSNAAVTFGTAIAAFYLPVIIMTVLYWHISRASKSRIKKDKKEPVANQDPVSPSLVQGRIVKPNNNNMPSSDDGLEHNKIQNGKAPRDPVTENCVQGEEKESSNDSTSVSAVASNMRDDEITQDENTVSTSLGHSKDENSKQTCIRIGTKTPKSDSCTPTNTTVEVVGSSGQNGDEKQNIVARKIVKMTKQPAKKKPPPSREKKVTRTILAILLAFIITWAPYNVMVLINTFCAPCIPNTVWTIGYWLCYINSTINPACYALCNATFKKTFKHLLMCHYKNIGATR

[5] = biological target: Sodium-dependent noradrenaline transporter (Homo sapiens, UniProt P23975)
Mu-type opioid receptor = Mu-type opioid receptor (Homo sapiens, UniProt P35372)
[6] = biological target: cGMP-inhibited 3',5'-cyclic phosphodiesterase 3A (Homo sapiens, UniProt Q14432); assay type: functional
Acetylcholinesterase = Acetylcholinesterase (Homo sapiens, UniProt P22303); assay type: functional
[7] = biological target: Voltage-gated inwardly rectifying potassium channel KCNH2 (Homo sapiens, UniProt Q12809); assay type: functional; details: read-out: AC50
Thromboxane A2 receptor [8] = biological target: T2, Thromboxane A2 receptor; assay type: functional, cell-based; remark: listed apart in the source
Adenosine receptor A3 = biological target: T5, Adenosine receptor A3 (Homo sapiens, UniProt P0DMS8)
T5 sequence (P0DMS8 whole entry): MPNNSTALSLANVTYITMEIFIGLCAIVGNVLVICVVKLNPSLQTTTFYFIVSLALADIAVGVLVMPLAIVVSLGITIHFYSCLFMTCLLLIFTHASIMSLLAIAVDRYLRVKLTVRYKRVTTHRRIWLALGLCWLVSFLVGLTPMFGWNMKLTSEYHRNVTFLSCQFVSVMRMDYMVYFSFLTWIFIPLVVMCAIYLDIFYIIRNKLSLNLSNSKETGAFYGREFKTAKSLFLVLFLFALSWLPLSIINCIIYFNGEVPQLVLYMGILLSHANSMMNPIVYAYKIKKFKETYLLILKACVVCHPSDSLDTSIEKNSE
Further: assay procedure not described here.

Chain of Acetylcholinesterase (P22303 whole entry): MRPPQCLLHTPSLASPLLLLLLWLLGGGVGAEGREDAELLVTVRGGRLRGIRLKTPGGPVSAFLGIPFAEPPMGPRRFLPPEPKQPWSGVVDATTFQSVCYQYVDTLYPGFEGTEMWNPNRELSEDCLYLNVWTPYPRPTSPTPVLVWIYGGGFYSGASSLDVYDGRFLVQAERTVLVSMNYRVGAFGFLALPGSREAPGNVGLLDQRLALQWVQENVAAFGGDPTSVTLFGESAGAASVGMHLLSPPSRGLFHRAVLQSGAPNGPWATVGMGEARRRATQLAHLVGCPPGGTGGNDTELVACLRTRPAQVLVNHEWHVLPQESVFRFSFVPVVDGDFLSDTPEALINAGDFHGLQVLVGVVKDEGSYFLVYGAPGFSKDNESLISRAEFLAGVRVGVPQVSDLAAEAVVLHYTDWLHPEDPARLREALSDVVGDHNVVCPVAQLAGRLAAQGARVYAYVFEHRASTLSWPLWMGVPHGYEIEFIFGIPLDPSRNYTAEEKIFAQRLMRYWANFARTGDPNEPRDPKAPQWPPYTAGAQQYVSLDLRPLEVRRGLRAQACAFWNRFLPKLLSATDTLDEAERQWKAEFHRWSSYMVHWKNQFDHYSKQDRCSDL
Chain of Mu-type opioid receptor (P35372 whole entry): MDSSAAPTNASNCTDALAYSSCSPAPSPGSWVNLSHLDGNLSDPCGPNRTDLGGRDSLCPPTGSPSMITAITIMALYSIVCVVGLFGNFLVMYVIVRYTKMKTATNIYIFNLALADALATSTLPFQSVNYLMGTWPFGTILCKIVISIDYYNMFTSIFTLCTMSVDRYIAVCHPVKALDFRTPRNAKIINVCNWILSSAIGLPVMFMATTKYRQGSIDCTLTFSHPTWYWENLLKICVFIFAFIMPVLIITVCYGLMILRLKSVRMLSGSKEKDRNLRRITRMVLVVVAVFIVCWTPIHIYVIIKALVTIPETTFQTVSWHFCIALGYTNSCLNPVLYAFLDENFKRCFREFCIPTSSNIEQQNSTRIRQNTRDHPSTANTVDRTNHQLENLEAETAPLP
Chain of Voltage-gated inwardly rectifying potassium channel KCNH2 (Q12809 whole entry): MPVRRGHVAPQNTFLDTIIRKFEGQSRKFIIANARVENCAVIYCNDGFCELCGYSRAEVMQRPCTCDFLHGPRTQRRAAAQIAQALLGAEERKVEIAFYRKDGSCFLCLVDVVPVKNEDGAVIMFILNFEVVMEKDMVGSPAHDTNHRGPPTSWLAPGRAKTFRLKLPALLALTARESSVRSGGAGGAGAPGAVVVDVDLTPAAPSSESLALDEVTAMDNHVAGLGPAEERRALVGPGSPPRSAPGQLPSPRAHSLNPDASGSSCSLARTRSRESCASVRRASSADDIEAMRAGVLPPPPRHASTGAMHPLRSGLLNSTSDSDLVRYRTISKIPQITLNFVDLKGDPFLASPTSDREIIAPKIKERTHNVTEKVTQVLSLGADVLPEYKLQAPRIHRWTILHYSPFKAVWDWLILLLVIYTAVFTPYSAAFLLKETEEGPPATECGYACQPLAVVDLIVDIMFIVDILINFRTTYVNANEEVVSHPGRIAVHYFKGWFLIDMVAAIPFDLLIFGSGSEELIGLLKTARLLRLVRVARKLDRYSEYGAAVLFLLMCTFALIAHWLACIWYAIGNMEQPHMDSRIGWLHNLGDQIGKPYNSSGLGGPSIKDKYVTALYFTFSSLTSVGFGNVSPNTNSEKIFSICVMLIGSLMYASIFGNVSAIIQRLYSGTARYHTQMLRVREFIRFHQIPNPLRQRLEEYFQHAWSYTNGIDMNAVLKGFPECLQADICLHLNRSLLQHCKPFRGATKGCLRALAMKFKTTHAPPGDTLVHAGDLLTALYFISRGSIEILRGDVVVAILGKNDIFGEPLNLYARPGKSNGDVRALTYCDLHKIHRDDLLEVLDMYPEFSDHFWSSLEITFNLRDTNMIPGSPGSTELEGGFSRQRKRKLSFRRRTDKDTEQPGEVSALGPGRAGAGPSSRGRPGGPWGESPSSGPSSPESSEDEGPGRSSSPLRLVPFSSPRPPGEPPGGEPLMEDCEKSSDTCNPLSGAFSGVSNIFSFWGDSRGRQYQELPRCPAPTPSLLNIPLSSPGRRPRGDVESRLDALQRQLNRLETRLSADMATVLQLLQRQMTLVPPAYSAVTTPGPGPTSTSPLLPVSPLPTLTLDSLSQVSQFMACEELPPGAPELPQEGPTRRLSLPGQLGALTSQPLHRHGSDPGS
Chain of Sodium-dependent serotonin transporter (P31645 whole entry): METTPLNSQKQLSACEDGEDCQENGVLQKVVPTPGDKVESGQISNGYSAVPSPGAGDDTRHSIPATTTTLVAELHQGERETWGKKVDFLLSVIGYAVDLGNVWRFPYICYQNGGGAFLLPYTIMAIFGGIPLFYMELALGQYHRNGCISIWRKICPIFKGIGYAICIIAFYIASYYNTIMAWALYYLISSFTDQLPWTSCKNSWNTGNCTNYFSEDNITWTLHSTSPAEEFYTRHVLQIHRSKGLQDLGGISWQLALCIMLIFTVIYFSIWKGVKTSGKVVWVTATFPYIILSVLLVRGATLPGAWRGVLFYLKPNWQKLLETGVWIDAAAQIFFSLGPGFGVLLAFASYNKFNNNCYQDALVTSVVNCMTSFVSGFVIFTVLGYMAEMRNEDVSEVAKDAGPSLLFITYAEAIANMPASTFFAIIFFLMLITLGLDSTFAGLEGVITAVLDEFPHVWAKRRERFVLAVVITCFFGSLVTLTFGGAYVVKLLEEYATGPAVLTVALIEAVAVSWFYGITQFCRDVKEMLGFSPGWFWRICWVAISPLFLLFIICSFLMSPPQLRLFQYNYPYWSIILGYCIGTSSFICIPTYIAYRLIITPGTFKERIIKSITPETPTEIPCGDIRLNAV
Chain of cGMP-inhibited 3',5'-cyclic phosphodiesterase 3A (Q14432 whole entry): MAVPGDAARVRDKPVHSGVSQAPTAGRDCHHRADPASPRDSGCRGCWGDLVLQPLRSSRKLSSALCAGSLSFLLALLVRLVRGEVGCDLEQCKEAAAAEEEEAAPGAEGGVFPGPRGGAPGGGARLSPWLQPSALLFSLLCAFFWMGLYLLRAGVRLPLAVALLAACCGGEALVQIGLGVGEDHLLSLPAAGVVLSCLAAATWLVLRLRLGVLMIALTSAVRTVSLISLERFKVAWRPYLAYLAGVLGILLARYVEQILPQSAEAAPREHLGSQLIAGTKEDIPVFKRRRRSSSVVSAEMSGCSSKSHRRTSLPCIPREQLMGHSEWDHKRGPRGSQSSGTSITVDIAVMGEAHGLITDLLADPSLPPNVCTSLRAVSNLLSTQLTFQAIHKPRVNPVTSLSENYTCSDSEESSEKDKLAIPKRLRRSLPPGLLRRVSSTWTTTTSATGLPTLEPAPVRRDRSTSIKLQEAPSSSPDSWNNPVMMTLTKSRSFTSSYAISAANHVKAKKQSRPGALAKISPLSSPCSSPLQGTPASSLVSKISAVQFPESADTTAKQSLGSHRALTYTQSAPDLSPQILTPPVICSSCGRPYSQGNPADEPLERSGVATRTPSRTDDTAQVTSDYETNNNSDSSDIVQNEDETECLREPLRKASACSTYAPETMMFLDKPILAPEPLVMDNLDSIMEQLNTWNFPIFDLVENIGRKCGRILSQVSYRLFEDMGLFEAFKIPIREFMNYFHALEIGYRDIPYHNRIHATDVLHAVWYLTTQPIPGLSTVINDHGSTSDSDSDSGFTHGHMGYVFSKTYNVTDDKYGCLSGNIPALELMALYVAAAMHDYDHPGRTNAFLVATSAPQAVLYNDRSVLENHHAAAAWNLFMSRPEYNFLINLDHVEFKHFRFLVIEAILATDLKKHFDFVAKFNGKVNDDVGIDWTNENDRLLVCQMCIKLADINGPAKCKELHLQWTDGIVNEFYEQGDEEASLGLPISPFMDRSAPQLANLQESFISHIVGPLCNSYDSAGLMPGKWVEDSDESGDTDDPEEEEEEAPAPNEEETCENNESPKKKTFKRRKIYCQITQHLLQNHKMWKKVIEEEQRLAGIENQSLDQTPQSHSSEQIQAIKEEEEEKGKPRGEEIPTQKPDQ
Chain of Sodium-dependent noradrenaline transporter (P23975 whole entry): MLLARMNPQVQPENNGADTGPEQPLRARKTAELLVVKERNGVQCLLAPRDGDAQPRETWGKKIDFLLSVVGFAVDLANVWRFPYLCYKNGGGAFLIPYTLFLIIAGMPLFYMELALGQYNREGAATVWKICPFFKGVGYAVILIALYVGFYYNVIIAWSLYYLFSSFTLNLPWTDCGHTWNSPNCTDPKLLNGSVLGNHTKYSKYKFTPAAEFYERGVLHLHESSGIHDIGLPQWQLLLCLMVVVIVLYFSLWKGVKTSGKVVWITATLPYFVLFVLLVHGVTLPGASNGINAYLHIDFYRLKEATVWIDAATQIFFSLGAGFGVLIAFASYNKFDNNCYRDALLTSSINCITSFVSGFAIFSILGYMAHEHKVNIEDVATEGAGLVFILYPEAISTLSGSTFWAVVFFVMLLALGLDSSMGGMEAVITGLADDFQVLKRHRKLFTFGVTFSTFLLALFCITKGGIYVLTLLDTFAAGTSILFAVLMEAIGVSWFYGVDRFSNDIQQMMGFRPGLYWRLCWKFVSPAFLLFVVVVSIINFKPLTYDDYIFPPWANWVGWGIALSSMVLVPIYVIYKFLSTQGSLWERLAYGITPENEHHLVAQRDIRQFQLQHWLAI
Chain of D(3) dopamine receptor (P35462 whole entry): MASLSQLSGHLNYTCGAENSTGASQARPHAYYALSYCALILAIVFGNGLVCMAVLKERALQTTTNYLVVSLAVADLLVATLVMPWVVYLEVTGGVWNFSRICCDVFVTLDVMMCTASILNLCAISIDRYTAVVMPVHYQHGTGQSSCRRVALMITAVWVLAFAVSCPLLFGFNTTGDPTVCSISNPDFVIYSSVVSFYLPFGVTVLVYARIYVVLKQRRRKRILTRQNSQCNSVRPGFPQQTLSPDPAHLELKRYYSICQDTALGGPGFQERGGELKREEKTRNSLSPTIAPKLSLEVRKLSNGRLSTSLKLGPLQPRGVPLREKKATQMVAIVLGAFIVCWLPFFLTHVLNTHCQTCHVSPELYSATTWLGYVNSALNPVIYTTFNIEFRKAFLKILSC

In the case of `C[C@]1(COc2ccc(N3CCC(Oc4ccc(OC(F)(F)F)cc4)CC3)cc2)Cn2cc([N+](=O)[O-])nc2O1`, the AC50 (Estrogen receptor) is reported as greater than 30 µM, the AC50 (Thromboxane A2 receptor [1]) is reported as greater than 30 µM and the AC50 [2] is reported as 2.02 µM. The AC50 (D(3) dopamine receptor) was greater than 30 µM, the AC50 [3] was greater than 30 µM and the AC50 [4] was greater than 30 µM. It also gave an AC50 [5] of 12.9 µM, an AC50 (Mu-type opioid receptor) greater than 30 µM and an AC50 [6] greater than 30 µM. It also gave an AC50 (Acetylcholinesterase) greater than 30 µM, an AC50 [7] greater than 30 µM and an AC50 (Thromboxane A2 receptor [8]) greater than 30 µM.
With `CNC(=O)C[C@@H](N)C(=O)N[C@@H](C(=O)N[C@@H]1C(=O)N2[C@@H]1SC(C)(C)[C@@H]2C(=O)O)c1ccc(O)cc1` [ASPOXICILLIN] the AC50 (Estrogen receptor) was greater than 30 µM, the AC50 (Thromboxane A2 receptor [1]) was greater than 30 µM and the AC50 [2] was greater than 30 µM. For the same compound, the AC50 (D(3) dopamine receptor) was greater than 30 µM, the AC50 [3] was greater than 30 µM and the AC50 [4] was greater than 30 µM. The AC50 [5] was greater than 30 µM, the AC50 (Mu-type opioid receptor) was greater than 30 µM and the AC50 (Adenosine receptor A3) was greater than 30 µM. For the same compound, the AC50 [6] was greater than 30 µM, the AC50 (Acetylcholinesterase) was greater than 30 µM and the AC50 (Thromboxane A2 receptor [8]) was greater than 30 µM.
With `O=C(Nc1nc(-c2cc(Cl)cs2)c(N2CCN(C3CCCCC3)CC2)s1)c1cnc(N2CCC(C(=O)O)CC2)c(Cl)c1` [AVATROMBOPAG] the AC50 (Estrogen receptor) was greater than 30 µM, the AC50 (Thromboxane A2 receptor [1]) was greater than 10 µM and the AC50 [2] was greater than 30 µM. It also gave an AC50 (D(3) dopamine receptor) greater than 30 µM, an AC50 [3] greater than 30 µM and an AC50 [4] greater than 30 µM. It also gave an AC50 [5] greater than 30 µM, an AC50 (Mu-type opioid receptor) greater than 30 µM and an AC50 [6] greater than 30 µM. It also gave an AC50 (Acetylcholinesterase) greater than 30 µM, an AC50 [7] of 12.4 µM and an AC50 (Thromboxane A2 receptor [8]) greater than 30 µM.
Compound `Cc1nnc(SCC2=C(C(=O)O)N3C(=O)[C@@H](NC(=O)Cn4cc(Cl)c(=O)c(Cl)c4)[C@H]3SC2)s1` [CEFAZEDONE] has an AC50 (Estrogen receptor) greater than 30 µM, an AC50 (Thromboxane A2 receptor [1]) greater than 30 µM and an AC50 [2] greater than 30 µM. For the same compound, the AC50 (D(3) dopamine receptor) was greater than 30 µM, the AC50 [3] was greater than 30 µM and the AC50 [4] was greater than 30 µM. The AC50 [5] was greater than 30 µM, the AC50 (Mu-type opioid receptor) was greater than 30 µM and the AC50 (Adenosine receptor A3) was greater than 30 µM. For the same compound, the AC50 [6] was greater than 30 µM, the AC50 (Acetylcholinesterase) was greater than 30 µM and the AC50 (Thromboxane A2 receptor [8]) was greater than 30 µM.
`CO/N=C(\C(=O)N[C@@H]1C(=O)N2C(C(=O)[O-])=C(C[n+]3cccc4c3CCC4)CS[C@H]12)c1csc(N)n1` [CEFPIROME] gave an AC50 (Estrogen receptor) greater than 30 µM, an AC50 (Thromboxane A2 receptor [1]) greater than 30 µM and an AC50 [2] greater than 30 µM. It also gave an AC50 (D(3) dopamine receptor) greater than 30 µM, an AC50 [3] greater than 30 µM and an AC50 [4] greater than 30 µM. It also gave an AC50 [5] greater than 30 µM, an AC50 (Mu-type opioid receptor) greater than 30 µM and an AC50 [6] greater than 30 µM. The AC50 (Acetylcholinesterase) was greater than 30 µM, the AC50 [7] was greater than 30 µM and the AC50 (Thromboxane A2 receptor [8]) was greater than 30 µM.
For `C[C@@H]1C[C@H]2[C@@H]3C[C@H](F)C4=CC(=O)C=C[C@]4(C)[C@@]3(Cl)[C@@H](O)C[C@]2(C)[C@H]1C(=O)COC(=O)C(C)(C)C` [CLOCORTOLONE PIVALATE], the AC50 (Estrogen receptor) was greater than 30 µM, the AC50 (Thromboxane A2 receptor [1]) was greater than 30 µM and the AC50 [2] was greater than 30 µM. For the same compound, the AC50 (D(3) dopamine receptor) was greater than 30 µM, the AC50 [3] was greater than 30 µM and the AC50 [4] was greater than 10 µM. The AC50 [5] was greater than 30 µM, the AC50 (Mu-type opioid receptor) was greater than 10 µM and the AC50 (Adenosine receptor A3) was 5.52 µM. It also gave an AC50 [6] greater than 30 µM, an AC50 (Acetylcholinesterase) greater than 30 µM and an AC50 (Thromboxane A2 receptor [8]) greater than 30 µM.
Compound `O=P(O)(O)C(Cl)(Cl)P(=O)(O)O` [CLODRONIC ACID] has an AC50 (Estrogen receptor) greater than 30 µM, an AC50 (Thromboxane A2 receptor [1]) greater than 30 µM and an AC50 [2] greater than 30 µM. The AC50 (D(3) dopamine receptor) was greater than 30 µM, the AC50 [3] was greater than 30 µM and the AC50 [4] was greater than 30 µM. For the same compound, the AC50 [5] was greater than 30 µM, the AC50 (Mu-type opioid receptor) was greater than 30 µM and the AC50 (Adenosine receptor A3) was greater than 30 µM. The AC50 [6] was greater than 30 µM, the AC50 (Acetylcholinesterase) was greater than 30 µM and the AC50 (Thromboxane A2 receptor [8]) was greater than 30 µM.
In the case of `c1ccc2c(CC3=NCCN3)cccc2c1` [NAPHAZOLINE], the AC50 (Estrogen receptor) is reported as greater than 30 µM, the AC50 (Thromboxane A2 receptor [1]) is reported as greater than 30 µM and the AC50 [2] is reported as greater than 30 µM. For the same compound, the AC50 [3] was 0.022 µM, the AC50 [4] was greater than 30 µM and the AC50 [5] was greater than 30 µM. It also gave an AC50 (Mu-type opioid receptor) of 8.37 µM, an AC50 (Adenosine receptor A3) greater than 30 µM and an AC50 [6] greater than 30 µM. The AC50 (Acetylcholinesterase) was greater than 30 µM, the AC50 [7] was greater than 30 µM and the AC50 (Thromboxane A2 receptor [8]) was greater than 30 µM.
`CO[C@H]1/C=C/O[C@@]2(C)Oc3c(C)c(O)c4c(O)c(cc(O)c4c3C2=O)NC(=O)/C(C)=C\C=C\[C@H](C)[C@H](O)[C@@H](C)[C@@H](O)[C@@H](C)[C@H](OC(C)=O)[C@@H]1C` [RIFAMYCIN] gave an AC50 (Estrogen receptor) greater than 30 µM, an AC50 [2] greater than 30 µM and an AC50 (D(3) dopamine receptor) greater than 30 µM. It also gave an AC50 [3] greater than 30 µM, an AC50 [4] greater than 30 µM and an AC50 [5] greater than 30 µM. It also gave an AC50 (Mu-type opioid receptor) greater than 30 µM, an AC50 (Adenosine receptor A3) greater than 30 µM and an AC50 [6] greater than 30 µM. It also gave an AC50 (Acetylcholinesterase) greater than 30 µM, an AC50 [7] greater than 30 µM and an AC50 (Thromboxane A2 receptor [8]) of 8.77 µM.
